The values that follow are results of earlier work, collected in US6462088B1, “Disinfecting preparation containing chlorine in alcohol” (priority 1998, dated 2002).

For this data set the following is noted: 25° C., aqueous solution; for E0 standard oxidation potential, Ref. b): Ullmann's Encyclopedia.

As to `OCl` [Hypochlorous acid], the “E0 standard oxidation potential, Ref. b)” value is recorded as 1.50 V. Further, the “E0 standard oxidation potential, Ref. a)” value (Rice and Gomez-Taylor) is recorded as 1.49 V.

Turning to Hypochlorite ion, the “E0 standard oxidation potential, Ref. b)” value is recorded as 0.90 V.
